How the values were obtained:
Assay type in all cases: cell-based, human
SW480 [1] = test: MTT cytotoxicity assay, monolayer culture; details: for IC50: SW480, MTT assay, exposure time 96 h, means ± SDs
Source text: (§1) A549 (non‐small cell lung carcinoma), SW480 and HCT‐116 (both colon carcinoma) were kindly provided by Brigitte Marian, Institute of Cancer Research, Department of Medicine I, Medical University of Vienna, Austria. The cell line CH1/PA‐1 (ovarian teratocarcinoma) was kindly provided by Lloyd R. Kelland (CRC Centre for Cancer Therapeutics, Institute of Cancer Research, Sutton, UK). All cell culture media (including supplements) and reagents were obtained from Sigma–Aldrich, and all plasticware from StarLab, unless indicated otherwise.

CH1/PA‐1 [2] = test: MTT cytotoxicity assay, monolayer culture; details: CH1/PA‐1, MTT assay, exposure time 96 h, means ± SDs
Source text: as §1

A549 = test: MTT cytotoxicity assay, monolayer culture; details: exposure time 96 h, means ± SDs
Source text: as §1

SW480 [3] = test: Cell cycle distribution, flow cytometry with propidium iodide; details: for Cell cycle distribution G1, % / Cell cycle distribution G2/M, % / Cell cycle distribution S, %: 24 h, mean ± SD; for Relative change in cell cycle distribution G1, % / Relative change in cell cycle distribution G2/M, % / Relative change in cell cycle distribution S, %: difference to untreated control
Procedure: (§2) The influence of two ligands, as well as seven complexes on cell cycle distribution was tested in two of the cancer cell lines (SW480, CH1/PA‐1) by means of flow cytometry. The cell cycle distribution (G1, S, G2/M phase in %; Table S37) was investigated upon DNA staining with propidium iodide.
(§3) CH1/PA‐1 and SW480 cells were harvested by trypsinization, 8×10^4 and 1.2×10^5 cells per well were seeded into 12‐well plates, respectively. The cells were allowed to attach and resume proliferation for 24 h after the seeding. […] After continuous exposure for 24 h at 37 °C and under 5 % CO2, the cells were harvested by trypsinization and centrifuged at 300 g for 3 min. The cells were washed with PBS (1 mL) and resuspended in propidium iodine (PI) containing HSF buffer (600 μL; 0.1 % Triton X‐100, 0.1 % sodium citrate, 50 μg mL^−1 PI in PBS). After incubation overnight at 4 °C in the dark, 5×10^3 cells were measured by flow cytometry with a Millipore Guava easyCyte 8HT instrument (Luminex, USA). Data were evaluated by means of FlowJo software (Tree Star) using Watson Pragmatic algorithms.60 The fitting of the curve was chosen to keep the root mean square error between 1.0 and 2.0, alongside with good fitting visual model.

CH1/PA‐1 [4] = test: as above; details: for Cell cycle distribution G1, % / Cell cycle distribution S, % / Cell cycle distribution G2/M, %: 24 h, mean ± SD; for Relative change in cell cycle distribution G1, % / Relative change in cell cycle distribution G2/M, % / Relative change in cell cycle distribution S, %: difference to untreated control
Procedure: as §2, §3

**Q.** `Cc1c([O-])c(=S)ccn1-c1cccc2ccccc12.Cc1ccc(C(C)C)cc1.[Cl-].[Os+2]` [Compound 4 d, Chlorido[2‐methyl‐1‐(naphthalene‐1‐yl)‐3‐(oxo‐κO)‐pyridine‐4(1H)‐thionato‐κS](η^6‐p‐cymene)osmium(II)] was tested. Which IC50 (SW480 [1]) did it give?
**A.** The IC50 was 7700 ± 300 nM.

**Q.** What about the “IC50 relative to the osmium thiomaltol complex” value (SW480 [1]; SW480 cells) of the same compound?
**A.** The value was “four times higher”.

**Q.** And the IC50 (CH1/PA‐1 [2])?
**A.** The IC50 was 1300 ± 300 nM.

**Q.** And the IC50 (A549)?
**A.** The IC50 was 2400 ± 300 nM.

**Q.** Which results are given for “Chlorido[1‐phenyl‐2‐methyl‐3‐oxo‐κO‐pyridine‐4(1H)‐thionato‐κS](η^5‐1,2,3,4,5‐pentamethylcyclopentadienyl)rhodium(III) [Compound 5 b]”?
**A.** IC50 (SW480 [1]): 670 ± 40 nM; IC50 (CH1/PA‐1 [2]): 660 ± 80 nM; IC50 (A549): 2000 ± 800 nM; Cell cycle distribution G1, % (SW480 [3]; SW480, 2.5 µM): 37 ± 17%; Cell cycle distribution G2/M, % (SW480 [3]; SW480, 2.5 µM): 23 ± 7%; Cell cycle distribution S, % (SW480 [3]; SW480, 2.5 µM): 40 ± 11%; Relative change in cell cycle distribution G1, % (SW480 [3]; SW480, 2.5 µM): -11%; Relative change in cell cycle distribution G2/M, % (SW480 [3]; SW480, 2.5 µM): 4%; Relative change in cell cycle distribution S, % (SW480 [3]; SW480, 2.5 µM): 7%; Cell cycle distribution G1, % (SW480 [3]; SW480, 5 µM): 26 ± 13%; Cell cycle distribution G2/M, % (SW480 [3]; SW480, 5 µM): 27 ± 9%; Cell cycle distribution S, % (SW480 [3]; SW480, 5 µM): 48 ± 7%; Relative change in cell cycle distribution G1, % (SW480 [3]; SW480, 5 µM): -22%; Relative change in cell cycle distribution G2/M, % (SW480 [3]; SW480, 5 µM): 8%; Relative change in cell cycle distribution S, % (SW480 [3]; SW480, 5 µM): 15%; Cell cycle distribution G1, % (SW480 [3]; SW480, 10 µM): 34 ± 10%; Cell cycle distribution G2/M, % (SW480 [3]; SW480, 10 µM): 17 ± 6%; Cell cycle distribution S, % (SW480 [3]; SW480, 10 µM): 49 ± 8%; Relative change in cell cycle distribution G1, % (SW480 [3]; SW480, 10 µM): -14%; Relative change in cell cycle distribution G2/M, % (SW480 [3]; SW480, 10 µM): -2%; Relative change in cell cycle distribution S, % (SW480 [3]; SW480, 10 µM): 16%; G1 phase decrease (SW480 [3]; SW480 cells, 5 μM): more than 20%; Cell cycle distribution G1, % (CH1/PA‐1 [4]; CH1/PA-1, 2.5 µM): 22 ± 2%; Cell cycle distribution S, % (CH1/PA‐1 [4]; CH1/PA-1, 2.5 µM): 43 ± 9%; Relative change in cell cycle distribution G1, % (CH1/PA‐1 [4]; CH1/PA-1, 2.5 µM): -18%; Relative change in cell cycle distribution G2/M, % (CH1/PA‐1 [4]; CH1/PA-1, 2.5 µM): 11%; Relative change in cell cycle distribution S, % (CH1/PA‐1 [4]; CH1/PA-1, 2.5 µM): 7%; Cell cycle distribution G1, % (CH1/PA‐1 [4]; CH1/PA-1, 5 µM): 22 ± 6%; Cell cycle distribution G2/M, % (CH1/PA‐1 [4]; CH1/PA-1, 5 µM): 41 ± 4%; Cell cycle distribution S, % (CH1/PA‐1 [4]; CH1/PA-1, 5 µM): 37 ± 5%; Relative change in cell cycle distribution G1, % (CH1/PA‐1 [4]; CH1/PA-1, 5 µM): -18%; Relative change in cell cycle distribution G2/M, % (CH1/PA‐1 [4]; CH1/PA-1, 5 µM): 17%; Relative change in cell cycle distribution S, % (CH1/PA‐1 [4]; CH1/PA-1, 5 µM): 1%; Cell cycle distribution G1, % (CH1/PA‐1 [4]; CH1/PA-1, 10 µM): 19 ± 7%; Cell cycle distribution G2/M, % (CH1/PA‐1 [4]; CH1/PA-1, 10 µM): 39 ± 5%; Cell cycle distribution S, % (CH1/PA‐1 [4]; CH1/PA-1, 10 µM): 42 ± 1%; Relative change in cell cycle distribution G1, % (CH1/PA‐1 [4]; CH1/PA-1, 10 µM): -21%; Relative change in cell cycle distribution G2/M, % (CH1/PA‐1 [4]; CH1/PA-1, 10 µM): 15%; Relative change in cell cycle distribution S, % (CH1/PA‐1 [4]; CH1/PA-1, 10 µM): 6%; decrease in G1 phase (CH1/PA‐1 [4]; CH1/PA‐1 cells, 10 μM): more than 20%

**Q.** Which IC50 (SW480 [1]) does the source give for `Cc1c([O-])c(=S)ccn1-c1ccccc1.Cc1ccc(C(C)C)cc1.[Cl-].[Ru+2]` [Compound 3 b, Chlorido[2‐methyl‐3‐(oxo‐κO)‐1‐phenylpyridine‐4(1H)‐thionato‐κS](η^6‐p‐cymene)ruthenium(II)] here?
**A.** The IC50 was 2800 ± 100 nM.

**Q.** And the IC50 (CH1/PA‐1 [2])?
**A.** Its IC50 is 940 ± 80 nM.

**Q.** What about the IC50 (A549) of the same compound?
**A.** Its IC50 is 2400 ± 800 nM.

**Q.** How did the IC50 (SW480 [1]) turn out when “Chlorido[1‐phenyl‐2‐methyl‐3‐oxo‐κO‐pyridine‐4(1H)‐thionato‐κS](η^5‐1,2,3,4,5‐pentamethylcyclopentadienyl)iridium(III) [Compound 6 b]” was run?
**A.** The IC50 was 590 ± 80 nM.

**Q.** And the IC50 (CH1/PA‐1 [2])?
**A.** The IC50 was 820 ± 50 nM.

**Q.** And the IC50 (A549)?
**A.** Its IC50 is 2200 ± 800 nM.

**Q.** Which IC50 (SW480 [1]; Homo sapiens) does the source give for `Cc1c(O)c(=S)ccn1-c1ccccc1` [Compound 2 b, 3‐hydroxy‐2‐methyl‐1‐phenylpyridine‐4(1H)‐thione] here?
**A.** The IC50 was 520 ± 30 nM.

**Q.** What about the IC50 (CH1/PA‐1 [2]; Homo sapiens) of the same compound?
**A.** The IC50 was 520 ± 50 nM.

**Q.** What about the IC50 (A549; Homo sapiens) of the same compound?
**A.** The IC50 was 1600 ± 1200 nM.
